Our source for the Kb values is patent US9522890B2, “Compounds acting at multiple prostaglandin receptors giving a general anti-inflammatory response” (Allergan, Inc., priority 2011, dated 2016).

What all share (format): cell-based
In experiment [1] the target is T1, human recombinant prostanoid FP receptor (Homo sapiens, UniProt P43088).
T1 construct: expressed in transfected cells
In words: FLIPR Ca2+ signaling PG antagonist assay, FP receptor stable cell line. The settings on record: HEK-293 EBNA cells, standard agonist 17-phenyl-PGF2α. On the procedure: (§1) The above compounds were tested for PG antagonist activity as follows using human recombinant prostanoid receptor (DP1, EP1-4, FP, IP and TP) stable cell lines:
(§2) In order to measure the response of Gs and Gi coupled prostanoid receptors as a Ca^2+ signal, chimeric G protein cDNAs were used. Stable cell lines over-expressing human prostanoid DP1, EP1-4, FP, IP, and TP receptors were established as follows:
(§3) Briefly, human prostanoid DP1, EP2, and EP4 receptor cDNAs were co-transfected with chimeric Gqs cDNA containing a haemagglutanin (HA) epitope; human prostanoid EP3 receptors were co-transfected with chimeric Gqi-HA; human EP1, FP, IP, and TP receptor cDNAs were expressed with no exogenous G-proteins. Gqs and Gqi chimeric cDNAs (Molecular Devices, Sunnyvale, Calif., U.S.A.), as well as cDNAs of prostanoid receptors, were cloned into a pCEP4 vector with a hygromycin B selection marker. Transfection into HEK-293 EBNA (Epstein-Barr virus nuclear antigen) cells was achieved by the FuGENE 6 transfection Reagent (Roche Applied Science, Indianapolis, Ind., USA). Stable transfectants were selected according to hygromycin resistance. Because Gqs and Gqi contained an HA epitope, G-protein expression was detected by Western blotting analysis using anti-mouse HA monoclonal antibody and horseradish peroxidase (HRP)-conjugated secondary antibody, while functional expression of prostanoid receptors was detected by FLIPR screening (Matias et al., 2004). These stable cell lines were validated using previously published antagonists at 10 μM against serial dilutions of standard agonists by FLIPR functional assays for Ca^2+ Signaling (as described below).
(§4) Ca^2+ signaling studies were performed using a FLIPR TETRA system (Molecular Devices, Sunnyvale, Calif., USA) in the 384-format. This is a high-throughput instrument for cell-based assays to monitor Ca^2+ signaling associated with GPCRs and ion channels. Cells were seeded at a density of 5×10^4 cells/well in BioCoat poly-D-lysine coated, black wall, clear bottom 384-well plates (BD Biosciences, Franklin lakes, NJ, USA) and allowed to attach overnight in an incubator at 37° C. The cells were then washed twice with HBSS-HEPES buffer (Hanks' balanced salt solution without bicarbonate and phenol red, 20 mM HEPES, pH 7.4) using an ELx405 Select CW Microplate Washer (BioTek, Winooski, Vt., USA). After 60 min of dye-loading in the dark using the Ca^2+-sensitive dye Fluo-4AM (Invitrogen, Carlsbad, Calif., USA), at a final concentration of 2×10^−6M, the plates were washed 4 times with HBSS-HEPES buffer to remove excess dye and leaving 50 μl of buffer in each well. The plates were then placed in the FLIPR TETRA instrument and allowed to equilibrate at 37° C. Compounds were added in a 25 μl volume to each well to give final concentrations of 0.1 μM, 0.3 μM, 1 μM, 3 μM, 10 μM, and 30 μM; or 0.067 μM, 0.1 μM, 0.2 μM, 0.3 μM, 0.67 μM, and 1 μM for cells over-expressing TP receptors. After 4.5 minutes, a 7-point serial dilution of the standard agonist for the corresponding receptor, in a 25 μl volume was injected at the final concentrations from 10^−11M to 10^−5M in 10-fold serial dilution increments for cells expressing human recombinant DP1, EP1, EP2, EP3, EP4, FP, and IP receptors. The dose range for the standard agonist for human recombinant TP receptors was from 10^−12M to 10^−6M. HBSS-HEPES buffer was used as the negative control for the standard agonists. Cells were excited with LED (light emitting diode) excitation at 470-495 nm and emission was measured through an emission filter at 515-575 nm. Assay plates were read for 3.5 minutes using the FLIPR^TETRA. The peak increase in fluorescence intensity was recorded for each well. On each plate, negative controls, dose response of positive controls, and co-treatments of antagonist-agonist for each dose were in triplicates. Standard agonists were as follows: DP=BW 245C, EP1-EP4=PGE2, FP=17-phenyl-PGF2α, IP=Cicaprost, and TP=U-46619. […]

Experiment [2] deals with T2, human recombinant prostanoid DP1 receptor (Homo sapiens, UniProt Q13258).
T2 construct: expressed in transfected cells; co-transfected with chimeric Gqs-HA
T2 sequence (Q13258 1-359): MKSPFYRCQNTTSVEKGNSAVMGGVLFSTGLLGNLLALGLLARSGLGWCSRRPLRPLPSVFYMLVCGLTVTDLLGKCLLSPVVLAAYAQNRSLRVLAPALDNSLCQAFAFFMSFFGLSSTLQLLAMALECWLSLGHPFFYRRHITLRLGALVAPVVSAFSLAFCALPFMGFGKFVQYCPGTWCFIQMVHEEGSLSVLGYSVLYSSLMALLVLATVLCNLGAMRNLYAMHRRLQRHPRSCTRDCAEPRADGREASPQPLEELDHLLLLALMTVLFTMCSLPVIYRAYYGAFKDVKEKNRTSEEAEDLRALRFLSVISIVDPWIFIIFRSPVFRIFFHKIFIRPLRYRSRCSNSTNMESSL
In words: FLIPR Ca2+ signaling PG antagonist assay, DP1 receptor stable cell line. Particulars: HEK-293 EBNA cells with chimeric Gqs, standard agonist BW 245C; read-out: DP (antagonist Kb). The protocol: as §1, §2, §3, §4

The target of experiment [3] is T3, human recombinant prostanoid EP1 receptor (Homo sapiens, UniProt P34995).
T3 construct: expressed in transfected cells
T3 sequence (P34995 1-402): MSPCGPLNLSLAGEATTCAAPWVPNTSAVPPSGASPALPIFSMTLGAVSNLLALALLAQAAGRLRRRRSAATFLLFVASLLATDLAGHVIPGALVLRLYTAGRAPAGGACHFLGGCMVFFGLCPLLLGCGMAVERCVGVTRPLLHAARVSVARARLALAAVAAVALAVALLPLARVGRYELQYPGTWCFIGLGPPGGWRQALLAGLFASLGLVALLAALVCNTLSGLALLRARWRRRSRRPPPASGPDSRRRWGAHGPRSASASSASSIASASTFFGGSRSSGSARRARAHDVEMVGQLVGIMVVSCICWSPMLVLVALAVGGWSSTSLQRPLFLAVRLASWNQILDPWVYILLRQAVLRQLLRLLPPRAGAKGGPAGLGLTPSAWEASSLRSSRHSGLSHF
In words: FLIPR Ca2+ signaling PG antagonist assay, EP1 receptor stable cell line. The settings on record: HEK-293 EBNA cells, standard agonist PGE2. The protocol: as §1, §2, §3, §4

Experiment [4] concerns the target T4, human recombinant prostanoid EP2 receptor (Homo sapiens, UniProt P43116).
T4 construct: expressed in transfected cells; co-transfected with chimeric Gqs-HA
In words: FLIPR Ca2+ signaling PG antagonist assay, EP2 receptor stable cell line. The settings on record: HEK-293 EBNA cells with chimeric Gqs, standard agonist PGE2. On the procedure: as §1, §2, §3, §4

For experiment [5], the target named is T5, human recombinant prostanoid IP receptor (Homo sapiens, UniProt P43119).
T5 construct: expressed in transfected cells
In words: FLIPR Ca2+ signaling PG antagonist assay, IP receptor stable cell line. The settings on record: HEK-293 EBNA cells, standard agonist Cicaprost. The protocol: as §1, §2, §3, §4

Structures are written as SMILES.

As usually defined, the Kb is the equilibrium dissociation constant of an antagonist, usually derived from a functional assay.

T4 sequence (P43116 whole entry): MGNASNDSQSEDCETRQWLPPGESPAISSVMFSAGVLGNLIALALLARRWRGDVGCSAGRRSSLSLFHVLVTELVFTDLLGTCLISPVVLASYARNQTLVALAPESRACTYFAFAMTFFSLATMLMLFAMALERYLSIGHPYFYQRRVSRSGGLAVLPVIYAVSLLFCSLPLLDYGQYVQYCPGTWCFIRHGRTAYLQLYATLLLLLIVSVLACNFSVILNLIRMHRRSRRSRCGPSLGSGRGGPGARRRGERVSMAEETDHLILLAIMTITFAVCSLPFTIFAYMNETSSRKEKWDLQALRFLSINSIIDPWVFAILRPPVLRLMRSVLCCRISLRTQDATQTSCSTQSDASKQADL
T5 sequence (P43119 whole entry): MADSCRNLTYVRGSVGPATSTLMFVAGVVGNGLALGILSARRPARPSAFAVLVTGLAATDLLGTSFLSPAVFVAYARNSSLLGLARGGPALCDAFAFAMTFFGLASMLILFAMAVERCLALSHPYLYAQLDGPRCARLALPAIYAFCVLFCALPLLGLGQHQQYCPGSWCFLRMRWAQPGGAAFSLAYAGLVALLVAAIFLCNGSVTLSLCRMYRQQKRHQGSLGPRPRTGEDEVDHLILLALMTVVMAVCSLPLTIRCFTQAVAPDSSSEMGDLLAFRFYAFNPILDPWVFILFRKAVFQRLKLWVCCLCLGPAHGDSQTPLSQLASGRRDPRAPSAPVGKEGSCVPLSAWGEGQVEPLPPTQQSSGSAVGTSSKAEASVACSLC
T1 sequence (P43088 whole entry): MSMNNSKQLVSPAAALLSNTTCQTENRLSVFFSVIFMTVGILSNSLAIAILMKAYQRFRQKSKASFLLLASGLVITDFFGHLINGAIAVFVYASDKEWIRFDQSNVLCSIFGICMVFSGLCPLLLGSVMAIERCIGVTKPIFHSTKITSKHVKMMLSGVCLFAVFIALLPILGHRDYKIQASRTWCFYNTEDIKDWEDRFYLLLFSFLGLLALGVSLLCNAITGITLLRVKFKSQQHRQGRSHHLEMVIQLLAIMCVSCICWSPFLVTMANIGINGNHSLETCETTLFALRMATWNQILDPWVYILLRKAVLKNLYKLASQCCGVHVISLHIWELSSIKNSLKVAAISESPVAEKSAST

As to `Cc1cc(C(=O)O)nn1Cc1cc(C(F)(F)F)ccc1OCC1CCCC1` [Example 3, 1-(2-CYCLOPENTYLMETHOXY-5-TRIFLUOROMETHYL-BENZYL)-5-METHYL-1H-PYRAZOLE-3-CARBOXYLIC ACID], the Kb in experiment [1] was determined as 80 nM; in experiment [2], 700 nM; in experiment [3], 5 nM; in experiment [4] it was 8900 nM; in experiment [5], 4000 nM.
`Cc1cc(C(=O)O)nn1Cc1cc(Br)ccc1OCC1(C(F)(F)F)CCC1` [Example 9, 1-[5-BROMO-2-(1-TRIFLUOROMETHYL-CYCLOBUTYLMETHOXY)-BENZYL]-5-METHYL-1H-PYRAZOLE-3-CARBOXYLIC ACID]: the Kb in experiment [1] was 30 nM; in experiment [2], 190 nM; in experiment [3], 16 nM; in experiment [4] it was 3300 nM; in experiment [5] it was no less than 10000 nM.
As for `CCC(CC)COc1ccc(Br)cc1Cn1nc(C(=O)O)cc1C` [Example 6, 1-[5-BROMO-2-(2-ETHYL-BUTOXY)-BENZYL]-5-METHYL-1H-PYRAZOLE-3-CARBOXYLIC ACID], the antagonist equilibrium constant (Kb) in experiment [1] stood at 35 nM; in experiment [2], 150 nM; in experiment [3], 10 nM; in experiment [4] it was 6200 nM; in experiment [5], 500 nM.
`Cc1cc(C(=O)NS(=O)(=O)c2ccccc2)nn1Cc1cc(Cl)ccc1OCc1ccc(Cl)cc1` [Example 5, N-{1-[5-CHLORO-2-(4-CHLORO-BENZYLOXY)-BENZYL]-5-METHYL-1H-PYRAZOLE-3-CARBONYL}-BENZENESULFONAMIDE]: the Kb is 1700 nM in experiment [1]; 2600 nM in experiment [2]; 10 nM in experiment [3]; no less than 10000 nM in experiment [4]; 2000 nM in experiment [5].
As to `COc1ccc(COc2ccc(Cl)cc2Cn2nc(C(=O)NS(=O)(=O)c3ccccc3)cc2C)cc1` [Example 4, N-{1-[5-CHLORO-2-(4-METHOXY-BENZYLOXY)-BENZYL]-5-METHYL-1H-PYRAZOLE-3-CARBONYL}-BENZENESULFONAMIDE], the Kb came to 400 nM in experiment [1]; 800 nM in experiment [2]; 10 nM in experiment [3]; 4900 nM in experiment [4]; 900 nM in experiment [5].
In the case of `Cc1cc(C(=O)O)nn1Cc1cc(Br)ccc1OCC1CCCC1` [Example 2, 1-(5-BROMO-2-CYCLOPENTYLMETHOXY-BENZYL)-5-METHYL-1H-PYRAZOLE-3-CARBOXYLIC ACID], the antagonist equilibrium constant (Kb) was 20 nM in experiment [1]; 400 nM in experiment [2]; 10 nM in experiment [3]; no less than 10000 nM in experiment [4]; 1300 nM in experiment [5].
On the same counts, the results for `Cc1cc(C(=O)O)nn1Cc1cc(Cl)ccc1OCC1CCCC1` [Example 1, 1-(5-CHLORO-2-CYCLOPENTYLMETHOXY-BENZYL)-5-METHYL-1H-PYRAZOLE-3-CARBOXYLIC ACID] are 150 nM, 800 nM, 30 nM, no less than 10000 nM and no less than 10000 nM.
In the case of `CCC(C)(CC)COc1ccc(Br)cc1Cn1nc(C(=O)O)cc1C` [Example 7, 1-[5-BROMO-2-(2-ETHYL-2-METHYL-BUTOXY)-BENZYL]-5-METHYL-1H-PYRAZOLE-3-CARBOXYLIC ACID], the Kb in experiment [1] worked out at 80 nM; in experiment [2], 150 nM; in experiment [3] it was 19 nM; in experiment [4], 3600 nM; in experiment [5], 1700 nM.
For the molecule `Cc1cc(C(=O)O)nn1Cc1cc(Br)ccc1OCC1CCC1` [Example 8, 1-(5-BROMO-2-CYCLOBUTYLMETHOXY-BENZYL)-5-METHYL-1H-PYRAZOLE-3-CARBOXYLIC ACID], the Kb is 8 nM in experiment [1]; 130 nM in experiment [2]; 10 nM in experiment [3]; no less than 10000 nM in experiment [4]; 5600 nM in experiment [5].
